Source: patent publication US20210300924A1, “5-[6-[[3-(4,5,6,7-TETRAHYDROPYRAZOLO[4,3-C]PYRIDIN-1-YL)AZETIDIN-1-YL]METHYL]MORPHOLIN-4-YL]QUINOLINE-8-CARBONITRILE DERIVATIVES AND SIMILAR COMPOUNDS AS TLR7-9 ANTAGONISTS FOR TREATING SYSTEMIC LUPUS ERYTHEMATOSUS” (Hoffmann-La Roche Inc., priority 2018, published 2021)
Marks after values point to notes of the source that are not given here.

Legend:
[1] = Human microsome stability assay; assay type: in vitro ADME; settings: 1 μM test compound, 0.5 mg/mL liver microsomal protein, 37° C., up to 30 minutes; 6.2 = detection limit
Protocol: Human Microsome Stability Assay
The human microsomal stability assay is used for early assessment of metabolic stability of a test compound in human liver microsomes.
Human liver microsomes (Cat. NO.: 452117, Corning, USA; Cat. NO.:H2610, Xenotech, USA) were preincubated with test compound for 10 minutes at 37° C. in 100 mM potassium phosphate buffer, pH 7.4. The reactions were initiated by adding NADPH regenerating system. The final incubation mixtures contained 1 μM test compound, 0.5 mg/mL liver microsomal protein, 1 mM MgCl2, 1 mM NADP, 1 unit/mL isocitric dehydrogenase and 6 mM isocitric acid in 100 mM potassium phosphate buffer, pH 7.4. After incubation times of 0, 3, 6, 9, 15 and 30 minutes at 37° C., 300 μL of cold acetonitrile (including internal standard) was added to 100 μL incubation mixture to terminate the reaction. Following precipitation and centrifugation, the amount of compound remaining in the samples were determined by LC-MS/MS. Controls of no NADPH regenerating system at zero and 30 minutes were also prepared and analyzed.

human TLR8 = biological target: T1, human TLR8 (Homo sapiens, UniProt Q9NR97); assay: HEK293-Blue-hTLR-8 cells assay; assay type: cell-based; settings: HEK293-Blue-hTLR8 cells, R848 stimulation, 20 hrs, SEAP reporter; read-out: HEK/hTLR8 IC50
T1 construct: host or cells: HEK293 (HEK-Blue hTLR8)
T1 sequence (Q9NR97 27-1041): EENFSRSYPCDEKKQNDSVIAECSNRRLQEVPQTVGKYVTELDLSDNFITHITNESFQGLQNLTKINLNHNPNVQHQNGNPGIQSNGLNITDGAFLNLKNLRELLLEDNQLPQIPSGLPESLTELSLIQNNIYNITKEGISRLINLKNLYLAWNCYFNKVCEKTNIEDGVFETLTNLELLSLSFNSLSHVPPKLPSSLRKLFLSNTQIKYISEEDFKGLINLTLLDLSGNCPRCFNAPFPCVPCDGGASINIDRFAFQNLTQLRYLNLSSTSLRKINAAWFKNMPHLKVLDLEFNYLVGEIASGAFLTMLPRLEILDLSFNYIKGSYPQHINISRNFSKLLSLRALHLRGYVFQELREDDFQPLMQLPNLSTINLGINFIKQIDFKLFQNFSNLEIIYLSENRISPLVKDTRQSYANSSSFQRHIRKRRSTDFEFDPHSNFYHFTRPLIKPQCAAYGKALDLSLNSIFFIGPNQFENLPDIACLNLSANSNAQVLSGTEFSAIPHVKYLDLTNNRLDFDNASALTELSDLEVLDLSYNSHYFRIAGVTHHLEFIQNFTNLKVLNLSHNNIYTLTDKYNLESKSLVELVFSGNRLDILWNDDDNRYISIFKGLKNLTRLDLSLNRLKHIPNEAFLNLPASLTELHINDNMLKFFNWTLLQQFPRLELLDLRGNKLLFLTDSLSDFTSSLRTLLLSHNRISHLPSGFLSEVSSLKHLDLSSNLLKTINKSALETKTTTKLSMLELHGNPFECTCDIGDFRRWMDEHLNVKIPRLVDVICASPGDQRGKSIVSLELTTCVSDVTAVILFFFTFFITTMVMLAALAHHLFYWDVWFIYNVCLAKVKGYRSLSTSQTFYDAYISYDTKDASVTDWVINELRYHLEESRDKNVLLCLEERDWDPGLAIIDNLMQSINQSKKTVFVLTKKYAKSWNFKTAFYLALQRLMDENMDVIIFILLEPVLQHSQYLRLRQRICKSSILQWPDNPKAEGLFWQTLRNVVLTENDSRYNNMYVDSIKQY
Excerpt: A stable HEK293-Blue-hTLR-8 cell line was purchased from InvivoGen (Cat. #: hkb-htlr8, San Diego, Calif., USA). These cells were originally designed for studying the stimulation of human TLR8 by monitoring the activation of NF-κB. A SEAP (secreted embryonic alkaline phosphatase) reporter gene was placed under the control of the IFN-β minimal promoter fused to five NF-κB and AP-1-binding sites. The SEAP was induced by activating NF-κB and AP-1 via stimulating HEK-Blue hTLR8 cells with TLR8 ligands. Therefore the reporter expression was declined by TLR8 antagonist under the stimulation of a ligand, such as R848, for incubation of 20 hrs. The cell culture supernatant SEAP reporter activity was determined using QUANTI-Blue™ kit (Cat. #: rep-qb1, Invivogen, San Diego, Ca, USA) at a wavelength of 640 nm, a detection medium that turns purple or blue in the presence of alkaline phosphatase.
HEK293-Blue-hTLR8 cells were incubated at a density of 250,000-450,000 cells/mL in a volume of 170 μL in a 96-well plate in Dulbecco's Modified Eagle's medium (DMEM) containing 4.5 g/L glucose, 50 U/mL penicillin, […], […], 2 mM L-glutamine, 10% (v/v) heat-inactivated fetal bovine serum with addition of 20 μL test compound in a serial dilution in the presence of final DMSO at 1% and 10 μL of 60 uM R848 in above DMEM, perform incubation under 37° C. in a CO2 incubator for 20 hrs. Then 20 μL of the supernatant from each well was incubated with […] Quanti-blue substrate solution at 37° C. for 2 hrs and the absorbance was read at 620-655 nm using a spectrophotometer. The signaling pathway that TLR8 activation leads to downstream NF-κB activation has been widely accepted, and therefore similar reporter assay was modified for evaluating TLR8 antagonist.

Row | Structure (SMILES) | Clearance of Human microsome [1] | IC50 (human TLR8)
1 | C[C@@H]1CN(c2ccc(C#N)c3ncccc23)C[C@H](CN2CC(n3cc4c(n3)CN[C@@H](C)C4)C2)O1 (single isomer, unassigned) [Example 29] | 6.6 mL/min/kg | 0.011 µM
2 | C[C@@H]1CN(c2ccc(C#N)c3ncccc23)C[C@H](CN2CC(n3cc4c(n3)CNCC4)C2)O1 [Example 4, 5-[(2R,6S)-2-methyl-6-[[3-(4,5,6,7-tetrahydropyrazolo[3,4-c]pyridin-2-yl)azetidin-1-yl]methyl]morpholin-4-yl]quinoline-8-carbonitrile] | 6.2 mL/min/kg | 0.009 µM
3 | C[C@@H]1CN(c2ccc(C#N)c3ncccc23)C[C@H](CN2CC(n3cc4c(n3)CCN[C@@H]4C)C2)O1 [Example 21, 5-[(2R,6S)-2-methyl-6-[[3-[(4R)-4-methyl-4,5,6,7-tetrahydropyrazolo[4,3-c]pyridin-2-yl]azetidin-1-yl]methyl]morpholin-4-yl]quinoline-8-carbonitrile] | 6.2 mL/min/kg | 0.072 µM
4 | C[C@@H]1CN(c2ccc(C#N)c3ncccc23)C[C@H](CN2CC(n3cc4c(n3)CN(C)CC4)C2)O1 [Example 5, 5-[(2R,6S)-2-methyl-6-[[3-(6-methyl-5,7-dihydro-4H-pyrazolo[3,4-c]pyridin-2-yl)azetidin-1-yl]methyl]morpholin-4-yl]quinoline-8-carbonitrile] | 6.2 mL/min/kg | 0.006 µM
5 | C[C@@H]1CN(c2ccc(C#N)c3ncccc23)C[C@H](CN2CC(n3cc4c(n3)C[C@H](C)NC4)C2)O1 [Example 19, 5-[(2R,6S)-2-methyl-6-[[3-[(6S)-6-methyl-4,5,6,7-tetrahydropyrazolo[4,3-c]pyridin-2-yl]azetidin-1-yl]methyl]morpholin-4-yl]quinoline-8-carbonitrile] | 6.2 mL/min/kg | 0.022 µM
6 | C[C@@H]1Cc2cnn(C3CN(C[C@H]4CN(c5ccc(C#N)c6ncccc56)C[C@@H](C)O4)C3)c2CN1 (single isomer, unassigned) [Example 28] | 6.2 mL/min/kg | 0.01 µM
7 | C[C@@H]1CN(c2ccc(C#N)c3ncccc23)C[C@H](CN2CCC(n3cc4c(n3)CCNC4)CC2)O1 [Example 36, 5-[(2R,6S)-2-methyl-6-[[4-(4,5,6,7-tetrahydropyrazolo[4,3-c]pyridin-2-yl)-1-piperidyl]methyl]morpholin-4-yl]quinoline-8-carbonitrile] | 6.2 mL/min/kg | 0.04 µM
8 | Cc1nn(C2CN(C[C@H]3CN(c4ccc(C#N)c5ncccc45)C[C@@H](C)O3)C2)c2c1CCNC2 [Example 42, 5-[(2R,6S)-2-methyl-6-[[3-(3-methyl-4,5,6,7-tetrahydropyrazolo[3,4-c]pyridin-1-yl)azetidin-1-yl]methyl]morpholin-4-yl]quinoline-8-carbonitrile] | 7.1 mL/min/kg | 0.018 µM
9 | C[C@@H]1CN(c2ccc(C#N)c3ncccc23)C[C@H](CN2CC(n3cc4c(n3)[C@H](C)NCC4)C2)O1 (single isomer, unassigned) [Example 34] | 6.4 mL/min/kg | 0.016 µM
10 | C[C@@H]1CN(c2ccc(C#N)c3ncccc23)C[C@H](CN2CCC(n3ncc4c3CCNC4)CC2)O1 [Example 35, 5-[(2R,6S)-2-methyl-6-[[4-(4,5,6,7-tetrahydropyrazolo[4,3-c]pyridin-1-yl)-1-piperidyl]methyl]morpholin-4-yl]quinoline-8-carbonitrile] | 7.7 mL/min/kg | 0.025 µM
11 | C[C@@H]1CN(c2ccc(C#N)c3ncccc23)C[C@H](CN2CC(n3cc4c(n3)CCN[C@H]4C)C2)O1 [Example 23, 5-[(2R,6S)-2-methyl-6-[[3-[(4S)-4-methyl-4,5,6,7-tetrahydropyrazolo[4,3-c]pyridin-2-yl]azetidin-1-yl]methyl]morpholin-4-yl]quinoline-8-carbonitrile] | 6.2 mL/min/kg | 0.044 µM
12 | C[C@@H]1Cc2nn(C3CN(C[C@H]4CN(c5ccc(C#N)c6ncccc56)C[C@@H](C)O4)C3)cc2CN1 [Example 17, 5-[(2R,6S)-2-methyl-6-[[3-[(6R)-6-methyl-4,5,6,7-tetrahydropyrazolo[4,3-c]pyridin-2-yl]azetidin-1-yl]methyl]morpholin-4-yl]quinoline-8-carbonitrile] | 6.2 mL/min/kg | 0.018 µM
13 | Cc1c2c(nn1C1CN(C[C@H]3CN(c4ccc(C#N)c5ncccc45)C[C@@H](C)O3)C1)CCNC2 [Example 13, 5-[(2R,6S)-2-methyl-6-[[3-(3-methyl-4,5,6,7-tetrahydropyrazolo[4,3-c]pyridin-2-yl)azetidin-1-yl]methyl]morpholin-4-yl]quinoline-8-carbonitrile] |  | 0.045 µM
14 | C[C@@H]1CN(c2ccc(C#N)c3ncccc23)C[C@H](CN2CC(n3ncc4c3CNCC4)C2)O1 [Example 3, 5-[(2R,6S)-2-methyl-6-[[3-(4,5,6,7-tetrahydropyrazolo[3,4-c]pyridin-1-yl)azetidin-1-yl]methyl]morpholin-4-yl]quinoline-8-carbonitrile] |  | 0.006 µM
15 | Cc1c2c(nn1C1CN(C[C@H]3CN(c4ccc(C#N)c5ncccc45)C[C@@H](C)O3)C1)CCN(C)C2 [Example 15, 5-[(2S,6R)-2-[[3-(3,5-dimethyl-6,7-dihydro-4H-pyrazolo[4,3-c]pyridin-2-yl)azetidin-1-yl]methyl]-6-methyl-morpholin-4-yl]quinoline-8-carbonitrile] |  | 0.009 µM
16 | C[C@@H]1CN(c2ccc(C#N)c3ncccc23)C[C@H](CN2CC(n3ncc4c3CCNC4)C2)O1 [Example 1, 5-[(2R,6S)-2-methyl-6-[[3-(4,5,6,7-tetrahydropyrazolo[4,3-c]pyridin-1-yl)azetidin-1-yl]methyl]morpholin-4-yl]quinoline-8-carbonitrile] | 6.2* mL/min/kg | 0.017 µM
17 | C[C@@H]1CN(c2ccc(C#N)c3ncccc23)C[C@H](CN2CC(n3ncc4c3[C@H](C)NCC4)C2)O1 (single isomer, unassigned) [Example 32] |  | 0.01 µM
18 | Cc1c2c(nn1C1CN(C[C@H]3CN(c4ccc(C#N)c5ncccc45)C[C@@H](C)O3)C1)CNCC2 [Example 43, 5-[(2R,6S)-2-methyl-6-[[3-(3-methyl-4,5,6,7-tetrahydropyrazolo[3,4-c]pyridin-2-yl)azetidin-1-yl]methyl]morpholin-4-yl]quinoline-8-carbonitrile] | 6.5 mL/min/kg | 0.034 µM
